These are literature values, as cited in patent US20180140572A1, “COMPOSITIONS COMPRISING A CANCER STEMNESS INHIBITOR AND AN IMMUNOTHERAPEUTIC AGENT FOR USE IN TREATING CANCER” (Boston Biomedical, Inc., priority 2015, published 2018).

The subject of the series is microsatellite stable (MSS) metastatic colorectal cancer (mCRC). The conditions noted are these: patients with MSS mCRC, cited from earlier work.

Take “pembrolizumab: immunotherapeutic agent that binds to PD-1”: the disease control rate was 11%, the effectiveness result was “not effective”, the “immune-related objective response rate” value was 0% and the response rate is given as 0%. The “immune-related progression-free survival at 20 weeks” value (20 weeks) is reported as 11%.
